Values after ≈ are worked out from the molar mass of the structure shown.
Legend:
M. kansasii DSM 44162 = test: In vitro antimycobacterial evaluation, broth dilution micro-method; format: cell-based; details: Mycobacterium kansasii, DSM44162, 168 h, Middlebrook 7H9, 7 days, 37 °C
[1] = Lipophilicity determination by RP-HPLC (capacity factor, log k); format: physicochemical; details: RP-HPLC capacity factor logarithm; C18 column, MeOH 60% / H2O 40%, 40 °C
Method: Lipophilicity of the studied compounds was determined by RP-HPLC as capacity factor logarithm (log k) and calculated as log P using ACD/Percepta software. […] It is important to note that lipophilicity also has a great impact on target and off-target interactions, as mentioned below.
A HPLC system Agilent 1200 equipped with DAD detector (Agilent, Santa Clara, CA, USA) was used. A chromatographic column Symmetry® C18 5 μm, 4.6 × 250 mm, Part No. WAT054275, (Waters Corp., Milford, MA, USA) was used. The HPLC separation process was monitored and evaluated by EZChrom Elite software ver. 3.3.2 (Agilent). Isocratic elution by a mixture of MeOH p.a. (60%) and H2O-HPLC Mili-Q grade (40%) as a mobile phase was used. The total flow of the column was 1.0 mL/min, injection 20 μL, column temperature 40 °C and sample temperature 10 °C. The detection wavelength 210 nm was chosen. The KI methanolic solution was used for the dead time (tD) determination. Retention times (tR) were measured in minutes. The capacity factors k were calculated according to formula k = (tR − tD)/tD, where tR is the retention time of the solute, whereas tD denotes the dead time obtained using an unretained analyte. Log k, calculated from the capacity factor k, is used as the lipophilicity index converted to log P scale.

[2] = test system: Mycobacterium marinum CAMP 5644; test: In vitro antimycobacterial evaluation, broth dilution micro-method; format: cell-based; details: CAMP5644, 504 h, Middlebrook 7H9, 21 days, 28 °C
[3] = test system: methicillin-resistant S. aureus SA 630; test: In vitro antibacterial susceptibility testing, broth dilution micro-method; format: cell-based, Staphylococcus aureus; details: Staphylococcus aureus; clinical isolate MRSA SA 630; MH broth, 24 h, 37 °C
Method: (§1) The synthesized compounds were evaluated for in vitro antibacterial activity against representatives of multidrug-resistant bacteria, clinical isolates of methicillin-resistant Staphylococcus aureus (MRSA) 63718, SA 630 and SA 3202 that were obtained from the National Institute of Public Health, Prague, Czech Republic. Staphylococcus aureus ATCC 29213 was used as a reference and quality control strain. Ampicillin (Sigma-Aldrich) was used as the standard. Prior to testing, each strain was passaged onto nutrient agar (Oxoid, Hampshire, UK) with 5% of bovine blood, and bacterial inocula were prepared by suspending a small portion of bacterial colony in sterile phosphate buffered saline (pH 7.2–7.3). The cell density was adjusted to 0.5 McFarland units using a densitometer (Densi-La-Meter, LIAP, Riga, Latvia). The final inoculum was made by 1:20 dilution of the suspension with the Mueller-Hinton broth (MH broth). […] The broth dilution micro-method modified according to NCCLS guidelines in MH broth was used to determine the minimum inhibitory concentration (MIC). Drug-free controls, sterility controls and controls consisted of MH broth and DMSO alone were included. The determination of results was performed visually after 24 h of static incubation in the darkness at 37 °C in an aerobic atmosphere. The MICs were defined as the lowest concentration of the compound at which no visible bacterial growth was observed.

[4] = test system: methicillin-resistant S. aureus SA 3202; test: as above; format: cell-based, Staphylococcus aureus; details: Staphylococcus aureus; clinical isolate MRSA SA 3202; MH broth, 24 h, 37 °C
Method: as §1

[5] = test system: methicillin-resistant Staphylococcus aureus (MRSA) 63718; test: as above; format: cell-based; details: Staphylococcus aureus; clinical isolate MRSA 63718; MH broth, 24 h, 37 °C
Method: as §1

[6] = test system: Staphylococcus aureus ATCC 29213; test: as above; format: cell-based; details: ATCC29213, MH broth, 24 h, 37 °C
Method: as §1

With `COc1ccc(NC(=O)c2cc3ccccc3cc2O)cc1` [2c, 3-Hydroxy-N-(4-methoxyphenyl)naphthalene-2-carboxamide] the MIC (M. kansasii DSM 44162) was 873 µM (≈ 256 µg/mL), the log k [1] was 0.5951 and the MIC [2] was greater than 873 µM. For the same compound, the MIC [3] was greater than 873 µM, the MIC [4] was greater than 873 µM and the MIC [5] was greater than 873 µM. For the same compound, the MIC [6] was greater than 873 µM.

Compound `Cc1ccccc1NC(=O)c1cc2ccccc2cc1O` [3a, 3-Hydroxy-N-(2-methylphenyl)naphthalene-2-carboxamide] has an MIC (M. kansasii DSM 44162) of 115 µM (≈ 31.9 µg/mL), a log k [1] of 0.6936 and an MIC [2] of 462 µM (≈ 128 µg/mL). The MIC [3] was greater than 923 µM, the MIC [4] was 462 µM (≈ 128 µg/mL) and the MIC [5] was greater than 923 µM. The MIC [6] was greater than 923 µM.

`Cc1cccc(NC(=O)c2cc3ccccc3cc2O)c1` [3b, 3-Hydroxy-N-(3-methylphenyl)naphthalene-2-carboxamide] gave an MIC (M. kansasii DSM 44162) of 57.7 µM (≈ 16 µg/mL), a log k [1] of 0.8831 and an MIC [2] of 923 µM (≈ 256 µg/mL). For the same compound, the MIC [3] was greater than 923 µM, the MIC [4] was 462 µM (≈ 128 µg/mL) and the MIC [5] was greater than 923 µM. For the same compound, the MIC [6] was greater than 923 µM.

`Cc1ccc(NC(=O)c2cc3ccccc3cc2O)cc1` [3c, 3-Hydroxy-N-(4-methylphenyl)naphthalene-2-carboxamide] showed an MIC (M. kansasii DSM 44162) of 923 µM (≈ 256 µg/mL), a log k [1] of 0.8753 and an MIC [2] greater than 923 µM. It also gave an MIC [3] of 462 µM (≈ 128 µg/mL), an MIC [4] of 231 µM (≈ 64.1 µg/mL) and an MIC [5] greater than 923 µM. For the same compound, the MIC [6] was greater than 923 µM.

With `O=C(Nc1cccc(F)c1)c1cc2ccccc2cc1O` [4b, N-(3-Fluorophenyl)-3-hydroxynaphthalene-2-carboxamide] the MIC (M. kansasii DSM 44162) was 114 µM (≈ 32.1 µg/mL), the log k [1] was 0.8296 and the MIC [2] was 114 µM (≈ 32.1 µg/mL). For the same compound, the MIC [3] was 455 µM (≈ 128 µg/mL), the MIC [4] was 228 µM (≈ 64.1 µg/mL) and the MIC [5] was greater than 910 µM. The MIC [6] was greater than 910 µM.

Work on `O=C(Nc1ccc(F)cc1)c1cc2ccccc2cc1O` [4c, N-(4-Fluorophenyl)-3-hydroxynaphthalene-2-carboxamide] yielded an MIC (M. kansasii DSM 44162) of 114 µM (≈ 32.1 µg/mL), a log k [1] of 0.7317 and an MIC [2] of 910 µM (≈ 256 µg/mL). The MIC [3] was 455 µM (≈ 128 µg/mL), the MIC [4] was 228 µM (≈ 64.1 µg/mL) and the MIC [5] was greater than 910 µM. The MIC [6] was greater than 910 µM.

In the case of `O=C(Nc1ccccc1Cl)c1cc2ccccc2cc1O` [5a, N-(2-Chlorophenyl)-3-hydroxynaphthalene-2-carboxamide], the MIC (M. kansasii DSM 44162) is reported as 860 µM (≈ 256 µg/mL), the log k [1] is reported as 0.9509 and the MIC [2] is reported as 860 µM (≈ 256 µg/mL). It also gave an MIC [3] greater than 860 µM, an MIC [4] of 215 µM (≈ 64 µg/mL) and an MIC [5] greater than 860 µM. The MIC [6] was greater than 860 µM.

Work on `O=C(Nc1cccc(Cl)c1)c1cc2ccccc2cc1O` [5b, N-(3-Chlorophenyl)-3-hydroxynaphthalene-2-carboxamide] yielded an MIC (M. kansasii DSM 44162) of 860 µM (≈ 256 µg/mL), a log k [1] of 1.0796 and an MIC [2] greater than 860 µM. It also gave an MIC [3] of 430 µM (≈ 128 µg/mL), an MIC [4] of 215 µM (≈ 64 µg/mL) and an MIC [5] greater than 860 µM. It also gave an MIC [6] greater than 860 µM.

With `O=C(Nc1ccc(Cl)cc1)c1cc2ccccc2cc1O` [5c, N-(4-Chlorophenyl)-3-hydroxynaphthalene-2-carboxamide] the MIC (M. kansasii DSM 44162) was 430 µM (≈ 128 µg/mL), the log k [1] was 1.0687 and the MIC [2] was greater than 860 µM. The MIC [3] was greater than 860 µM, the MIC [4] was greater than 860 µM and the MIC [5] was greater than 860 µM. It also gave an MIC [6] greater than 860 µM.

For `O=C(Nc1cccc(Br)c1)c1cc2ccccc2cc1O` [6b, N-(3-Bromophenyl)-3-hydroxynaphthalene-2-carboxamide], the MIC (M. kansasii DSM 44162) was 748 µM (≈ 256 µg/mL), the log k [1] was 1.1536 and the MIC [2] was greater than 748 µM. The MIC [3] was greater than 748 µM, the MIC [4] was 187 µM (≈ 64 µg/mL) and the MIC [5] was greater than 748 µM. It also gave an MIC [6] greater than 748 µM.

Work on `O=C(Nc1ccc(Br)cc1)c1cc2ccccc2cc1O` [6c, N-(4-Bromophenyl)-3-hydroxynaphthalene-2-carboxamide] yielded an MIC (M. kansasii DSM 44162) of 374 µM (≈ 128 µg/mL), a log k [1] of 1.1459 and an MIC [2] greater than 748 µM. It also gave an MIC [3] greater than 748 µM, an MIC [4] of 187 µM (≈ 64 µg/mL) and an MIC [5] greater than 748 µM. It also gave an MIC [6] greater than 748 µM.

With `CC1(C)S[C@@H]2[C@H](NC(=O)[C@H](N)c3ccccc3)C(=O)N2[C@H]1C(=O)O` [APC, ampicillin, reference compound] the MIC [3] was greater than 45.8 µM, the MIC [4] was greater than 45.8 µM and the MIC [5] was greater than 45.8 µM. For the same compound, the MIC [6] was 5.7 µM (≈ 1.99 µg/mL).

Compound `NNC(=O)c1ccncc1` [INH, isoniazid, reference compound] has an MIC [2] of 467 µM (≈ 64 µg/mL).

Reference: paper PMC6270455, “Antibacterial and Herbicidal Activity of Ring-Substituted 3-Hydroxynaphthalene-2-carboxanilides” (Molecules, 2013)
